What all share (format): functional
In experiment [1] the test system is Staphylococcus aureus. The experiment is described as follows: Antibacterial activity against ciprofloxacin-resistant methicillin-resistant Staphylococcus aureus by broth macrodilution method.
Experiment [2] relates to Klebsiella pneumoniae. Description: Antibacterial activity against Klebsiella pneumoniae ATCC 13883 by broth macrodilution method.
Experiment [3] has as its system Staphylococcus aureus. Description: Antibacterial activity against ciprofloxacin-susceptible methicillin-resistant Staphylococcus aureus by broth macrodilution method.
Experiment [4] relates to Klebsiella pneumoniae. The experiment is described as follows: Antibacterial activity against Klebsiella pneumoniae ATCC 13883 by broth macrodilution method at 48 hrs. Particulars: ATCC 13883, 48 h.
In experiment [5] the test system is Staphylococcus aureus. The experiment is described as follows: Antibacterial activity against ciprofloxacin-resistant methicillin-resistant Staphylococcus aureus at 48 hrs by broth macrodilution method.
In experiment [6] the test system is Staphylococcus aureus. The experiment is described as follows: Antibacterial activity against ciprofloxacin-susceptible methicillin-resistant Staphylococcus aureus at 48 hrs by broth macrodilution method.

From ChEMBL document CHEMBL1142197, “The relationship between quinolone exposures and resistance amplification is characterized by an inverted U: a new paradigm for optimizing pharmacodynamics to counterselect resistance” (2007) come the findings set out here.

Values after ≈ are worked out from the molar mass of the structure shown.

Regarding `C[C@H]1NCc2cc(-c3ccc4c(=O)c(C(=O)O)cn(C5CC5)c4c3OC(F)F)ccc21` [GARENOXACIN], the MBC with Staphylococcus aureus [1], in the experiment on Klebsiella pneumoniae [2] and in the experiment on Staphylococcus aureus [3] was 0.32 µg/mL (≈ 0.75 µM) throughout. Further, the MIC in the experiment on Staphylococcus aureus [1] was 0.16 µg/mL (≈ 0.375 µM); in the experiment on Klebsiella pneumoniae [2], 0.16 µg/mL (≈ 0.375 µM); in the experiment on Staphylococcus aureus [3], 0.04 µg/mL (≈ 0.0938 µM); with Klebsiella pneumoniae [4], 0.64 µg/mL (≈ 1.5 µM); in the experiment on Staphylococcus aureus [5], 2.56 µg/mL (≈ 6 µM); with Staphylococcus aureus [6], 0.08 µg/mL (≈ 0.188 µM).
